{"source": "patent US20240175876A1", "about": "“PERIPLASMIC LIGAND TRAPPING SYSTEM” (UNIVERSITY OF MIAMI, priority 2022, published 2024)", "molecular_target": "T1, Angiotensin II Receptor Type I (AGTR1) (Homo sapiens, UniProt P30556)", "T1 construct": "expressed in transfected cells; host or cells: Saccharomyces cerevisiae strain DI DCyFIR P1 I (humanized Gαi)", "T1 sequence (P30556 1-359)": "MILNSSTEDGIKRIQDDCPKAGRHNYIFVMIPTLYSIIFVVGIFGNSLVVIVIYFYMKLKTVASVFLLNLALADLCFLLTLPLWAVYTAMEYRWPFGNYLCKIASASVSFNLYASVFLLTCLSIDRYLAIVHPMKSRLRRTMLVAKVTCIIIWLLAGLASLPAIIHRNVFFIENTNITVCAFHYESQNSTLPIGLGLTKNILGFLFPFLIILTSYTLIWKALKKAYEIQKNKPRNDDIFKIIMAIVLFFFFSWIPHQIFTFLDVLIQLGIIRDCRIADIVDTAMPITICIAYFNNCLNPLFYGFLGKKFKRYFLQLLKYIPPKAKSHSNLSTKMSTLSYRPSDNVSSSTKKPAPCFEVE", "experiment": "AGTR1 modulation via intracellular nanobodies, galactose-induced AGT-II, mTq2 reporter in yeast", "format": "cell-based", "settings": "galactose-induced secreted ligand, Gαi strain; FIG. 5B"}
{"substance": "angiotensin II [AGT-II]", "values": [{"measurement": "AGTR1 activation by inducible expression of ligand", "result": "successfully resulted in AGTR1 activation"}]}
